Measurements published in the supplement of paper PMC11061612.

Legend:
Test in all cases: Bliss excess, mean over the matrix (fraction); higher = more synergy
[1] = test system: SW780 (Bladder Carcinoma)
Outline: (§1)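 Cell lines grown in DMEM/F12 or RPMI with 10% FBS were plated in 1536-well plates and held 24 hours at 37°C, 5% CO2 before 72 hours of exposure to two-drug dose matrices, with DMSO typically at 0.2%. CellTiter-Glo 2.0 luminescence gave viability, which was converted to inhibition. Vehicle wells were set to 0 and blank wells to 1. Combination Emax is the second-highest inhibition in the matrix, and Bliss excess is the observed combination effect minus the expected EA + EB − EA·EB, where EA and EB are the single-agent effects.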

[2] = test system: TGBC24TKB (Biliary Tract Carcinoma)
Outline: as §1

[3] = test system: SUIT-2 (Pancreatic Carcinoma)
Outline: as §1

[4] = test system: KM-H2 (Hodgkin's Lymphoma)
Outline: as §1

[5] = test system: SW756 (Cervical Carcinoma)
Outline: as §1

RH-1 (Ewing's Sarcoma) = test system: RH-1 (Ewing's Sarcoma)
Outline: as §1

CS(=O)(=O)CCNCc1ccc(-c2ccc3ncnc(Nc4ccc(OCc5cccc(F)c5)c(Cl)c4)c3c2)o1 [Lapatinib] + NC1(c2ccc(-c3nc4ccn5c(=O)[nH]nc5c4cc3-c3ccccc3)cc2)CCC1 [MK-2206] (first compound max 10 µM, 7x7, partner max 10 µM) showed a Bliss excess [1] of -0.0054, a Bliss excess [2] of 0.0667 and a Bliss excess [3] of -0.0219. The Bliss excess [4] was 0.0116, the Bliss excess [5] was -0.0506 and the Bliss excess (RH-1 (Ewing's Sarcoma)) was -0.0202.
